Test results reported in patent publication US20160199407A1, “HALIDES IN THE TREATMENT OF PATHOGENIC INFECTION” (THE UNIVERSITY OF IOWA RESEARCH FOUNDATION, priority 2008, published 2016).
“Also recorded” adds a separate entry of the source. Read-outs that look alike come from different tables or passages of the source.

How the values were obtained:
[1] = system: S. aureus; assay: S. aureus killing on airway epithelial cell cultures with LPO and I^− or SCN^−; format: cell-based
[2] = system: adenovirus expressing eGFP; assay: In situ inactivation of adenovirus on AEC; conditions: porcine airway epithelia, 50 MOI, ATP (100 μM), 6.5 mg/mL LPO, NaI, PBS pH 6.5
[3] = system: eukaryotic cells; conditions: HOI: at bactericidal concentrations; cited from earlier work
[4] = system: SARS-CoV (Urbani strain); format: cell-based; conditions: human airway epithelia, 5 MOI, ATP (100 μM), 6.5 mg/mL LPO, NaI, pH 6.5, 24 hr
[5] = system: H. influenzae; assay: H. influenzae (NTHi) killing on airway epithelial cell cultures with LPO and I^− or SCN^−; format: cell-based
[6] = system: adenovirus (serotype 5); assay: In vitro (cell free) inactivation of adenovirus expressing eGFP; conditions: 5 min exposure, readout 24 hr later
[7] = system: influenza A (H1N1, A/PR/8/34); format: cell-based; conditions: pH 6.5
[8] = system: A2 strain of RSV; assay: Cell free exposure of RSV to Duox/LPO system components, then titering; conditions: 5 min
[9] = system: primary airway epithelia; conditions: cited from earlier work
[10] = system: human AEC; assay: HOI generation by AEC, fluorescein absorbance at 508 nm; format: cell-based; conditions: apical ATP (100 μM), I^− (400 μM), LPO (9 μg/ml), fluorescein (16 μM), 3 hours
[11] = system: M. haemolytica; assay: M. haemolytica killing by AEC cultures; format: cell-based
[12] = I^− accumulation in airway surface fluid after oral KI intake

OI [HOI]
Efficiency of HOI producing system against S. aureus versus OSCN^− producing mechanism ([1]; airway epithelia, LPO): more efficient
Adenovirus inactivation on airway epithelia (GFP expression) [2]: sufficient H2O2 to support; also recorded: dose dependent decrease
Toxicity to eukaryotic cells [3]: not toxic
SARS-CoV inactivation (N gene product immunoreactivity) [4]: sufficient H2O2 to support; also recorded: marked reduction
Bactericidal activity against H. influenzae ([5]; airway epithelia, LPO): strong bactericidal activity
Adenovirus inactivation (eGFP expression in transduced A549 cells) [6]: inactivated; also recorded: dose-dependent decrease
Influenza viral antigen (NS1) [7]: dose dependent decrease
Solution pH at which antiviral effect against RSV was most marked [8]: ≤ 6.5
Drop in RSV titer ([8]; PBS): 5 log

I [I^−, iodide]
Basolateral concentration above which primary airway epithelia secrete the anion [9]: higher than 1 μM
HOI production by AEC [10]: can support HOI production
Bacterial survival (S. aureus) ([1]; 50 and 200 μM I^−, LPO (7 μg/ml), epithelial cells, 1000 CFU, 3 hrs): No surviving bacteria
I^− concentration supporting complete elimination of S. aureus ([1]; AEC cultures, data not shown): 50 µM
I^− concentration at which numbers of surviving S. aureus were lower ([1]; LPO, airway epithelia, 3 hr): ≥ 10 µM
I^− concentration giving complete eradication of bacteria (S. aureus) ([1]; LPO, airway epithelia, 3 hr): 50 to 200 µM
Bacterial survival (H. influenzae) ([5]; 200 and 500 μM I−, LPO (7 μg/ml), epithelial cells, 1000 CFU, 3 hrs): No surviving bacteria
I^− concentration sufficient to support strong NTHi-killing activity of AEC ([5]; LPO present, catalase absent, data not shown): ≤ 50 µM
I^− concentration at which numbers of surviving H. influenzae were lower ([5]; LPO, airway epithelia, 3 hr): ≥ 10 µM
I^− concentration giving complete eradication of bacteria (H. influenzae) ([5]; LPO, airway epithelia, 3 hr): 50 to 200 µM
Elimination of M. haemolytica in the presence of I^− as compared to SCN^− [11]: more effective
Susceptibility of M. haemolytica to supported antibacterial activity [11]: susceptible
Bacterial survival (M. haemolytica) ([11]; LPO and 250 μM I^−, 3 hours): No surviving bacteria

[I-].[K+] [KI, potassium iodide]
Airway surface fluid I^− concentration relative to serum I^− level ([12]; 8 hours after oral 130 mg KI): more than 50 fold
Sufficiency to achieve the airway surface fluid I^− level (10-50 μM) necessary for HOI-mediated elimination of bacteria and viruses ([12]; oral 130 mg KI): more than sufficient
Time the high airway surface fluid I^− concentration was maintained ([12]; oral 130 mg KI): several hours
I^− concentration in airway surface fluid ([12]; two hours after oral KI tablet (130 mg), human subject): ~200 µM

N#CSO [OSCN^−, hypothiocyanite, reference compound]
Toxicity to eukaryotic cells [3]: not toxic
Susceptibility of NTHi ([5]; AEC cultures, data not shown): resistant
Bactericidal activity against H. influenzae ([5]; airway epithelia, LPO): ineffective
Influenza viral antigen (NS1) [7]: dose dependent decrease
Virucidal effects on RSV ([8]; PBS): minimal virucidal effects

N#CS [SCN^−, thiocyanate, reference compound]
Rate of apical-to-basolateral leakage ([9]; Moskwa, 2007): < 10 %/hour
Basolateral concentration above which primary airway epithelia secrete the anion ([9]; published data): > 5 µM
SCN^− concentration necessary for killing of S. aureus ([1]; AEC cultures, data not shown): > 120 µM
SCN− in place of I^− in the oxidative mechanism eliminating H. influenzae ([5]; LPO, epithelial cells, 3 hrs, 500 μM SCN^− controls): cannot replace I^−
Susceptibility of M. haemolytica to supported antibacterial activity [11]: susceptible
Killing of M. haemolytica ([11]; 250 μM SCN^−, 3 hours): supported killing
